Tests used:
Assay type in all cases: physicochemical
[1] = Stability and flowability of the solid form (statement, no method given)
[2] = Karl Fischer water content
Experimental: Water content analysis was performed on Metrohm 890 Titando instrument. About 100 mg sample was added to the titrator, the water content is measured in % w/w by measuring the amount of iodine consumed as a result of reaction with water in the sample.

[3] = Thermogravimetric analysis (TGA) of Forms T14 and T15; conditions: temperature changed from 27.1° C. to 170° C.
Experimental: Procedure for Thermo Gravimetric Analysis (TGA) for Forms T14 and T15:
Thermogravimetric analysis was conducted on a TA instrument Q500 thermogravimetric analyzer. About 9.4 mg sample was placed into a tared TGA crucible and placed into a TGA furnace. The furnace was heated under nitrogen at a heating rate of 10° C./min up to 250° C.

N#Cc1ccnc(N2C(=O)CC[C@H]2C(=O)N(c2cncc(F)c2)[C@H](C(=O)NC2CC(F)(F)C2)c2ccccc2Cl)c1 [Form T11, Ivosidenib]
flowability [1]: very good flowability | stability of the crystalline form [1]: stable

N#Cc1ccnc(N2C(=O)CC[C@H]2C(=O)N(c2cncc(F)c2)[C@H](C(=O)NC2CC(F)(F)C2)c2ccccc2Cl)c1 [Form T14, Ivosidenib]
moisture / water content (KF Titration method) [2]: 2.7% | weight loss of the weight of the sample (TGA) [3]: about 2.786%

N#Cc1ccnc(N2C(=O)CC[C@H]2C(=O)N(c2cncc(F)c2)[C@H](C(=O)NC2CC(F)(F)C2)c2ccccc2Cl)c1 [Form T15, Ivosidenib]
moisture / water content (KF Titration method) [2]: 3.39% | weight loss of the weight of the sample (TGA) [3]: about 3.899%

— patent US11673880B2, “Solid state forms of ivosidenib” (ASSIA CHEMICAL INDUSTRIES LTD., priority 2017, dated 2023)
